Measurements as given in the METLIN SMRT retention time set (Domingo-Almenara et al. 2019).

Assay: gradient 5% acetonitrile 3 min, to 50% in 2 min, to 85% in 15 min, held 3 min, 100 µL/min
Conditions: column: Zorbax Extend-C18 2.1 x 50 mm; eluents: water / acetonitrile, 0.1% formic acid
Outline: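 Retention time was recorded from adduct peaks, which were picked computationally and each inspected manually. Pure standards ran in mixtures of ~100 molecules on HPLC coupled to a quadrupole time-of-flight mass spectrometer, in positive and negative ionization mode, through a Zorbax Extend-C18 column (2.1 × 50 mm, 1.8 μm) at 100 μL/min. Eluents were water and acetonitrile, each with 0.1% formic acid.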

Row | SMILES | RP-LC retention time
1 | Cc1ccccc1Nc1c(-c2ccc(N3CCOCC3)cc2)nc2cnccn12 | 822 s
2 | O=C(c1ccccc1F)N1CCCn2cc(-c3ccccc3F)nc21 | 792 s
3 | COc1ccc(CC(=O)N2CCN(c3cc(C)n4cnnc4n3)CC2)cc1Cl | 611 s
4 | O=C(c1cc2ccccc2[nH]1)N1CCCC1 | 794 s
5 | O=C(NCc1ccccc1)c1ccc2ncnc(N3CCCC3)c2c1 | 613 s
6 | COC(=O)c1cc2c(cn1)[nH]c1ccccc12 | 704 s
7 | O=C(N[C@H]1C[C@@H]2C[C@H]1N(C(=O)c1cccc(C(F)(F)F)c1)C2)c1cccs1 | 839 s
8 | O=C(CCc1nc(N2CCCCC2)c2c(-c3ccccc3)noc2n1)NC1CC1 | 909 s
9 | O=C(NCCN1CCN(C(=O)c2cccs2)CC1)c1ccc2nsnc2c1 | 550 s
10 | O=C(c1ccc(-c2cccs2)nc1)N1CCN(C2CCCCC2)CC1 | 711 s
11 | Cc1ccc(Oc2ccc(NS(=O)(=O)c3ccc(F)cc3F)cc2)nn1 | 720 s
12 | CCOC(=O)c1cccc(NC(=O)Cn2cnc3nc(N4CCCC(C(=O)NC)C4)sc3c2=O)c1 (stereo not drawn) | 678 s
13 | CCN(CC)S(=O)(=O)c1ccc2c(c1)N(CC(=O)NCCC(C)C)C(=O)C1CCCCN21 (stereo not drawn) | 991 s
14 | O=C(CN1C(=O)c2ccccc2C1=O)Nc1nnc(C2COc3ccccc3O2)o1 (stereo not drawn) | 714 s
15 | Cc1cc(N2CCCC2)n2nc(CN3CCc4ccccc4C3)nc2n1 | 598 s
16 | CC(C)CCNC(=O)C1(C)Cn2nc(C(=O)N3CCN(C4CCCCC4)CC3)cc2C(=O)N1C (stereo not drawn) | 620 s
17 | O=C(Nc1ccccc1)Nc1ccc2nnc(C3CC3)n2c1 | 703 s
18 | Cc1csc(C(=O)Nc2ccc(CC(=O)N3CCC(O)CC3)cc2)c1 | 635 s
19 | CC(C)(C)CC(=O)N1CCN(c2nc(CN3CCCCCC3)cs2)CC1 | 668 s
20 | CC(=O)N1CCC2(CC1)Oc1ccccc1C1CC(c3ccc4c(c3)OCO4)=NN12 (stereo not drawn) | 783 s
21 | O=C(NCc1cccc(C(F)(F)F)c1)c1cn2ccccc2n1 | 748 s

Row | SMILES | RP-LC retention time
22 | COc1ccc(CN(Cc2ccccc2)Cc2cc(=O)n3ccccc3n2)cc1 | 666 s
23 | CN(c1nccn2c(=O)n(CC(=O)Nc3ccc(F)cc3F)nc12)C1CCCCC1 | 902 s
24 | CC1(C(=O)NC2CCCCCCC2)CN(S(C)(=O)=O)CC(=O)N1c1ccc(F)cc1 (stereo not drawn) | 884 s
25 | COc1ccc(CN2CCc3nc(N4CCOCC4)ncc3C2)c(OC)c1 | 611 s
26 | O=C(NCc1ccc(N2CCOCC2)nc1)c1cc(F)cc(F)c1 | 606 s
27 | COC(=O)c1ccc(OC)c(Cn2cnc3c(-c4ccccc4)csc3c2=O)c1 | 988 s
28 | CCCn1cc(S(=O)(=O)Nc2cccc(Cl)c2)c2cccnc21 | 942 s
29 | COC(=O)Nc1nc(CC(=O)Nc2ccc(F)c(Cl)c2)cs1 | 744 s
30 | CCCn1c(=O)sc2cc(S(=O)(=O)N3CCC(C(=O)N4CCN(C)CC4)CC3)ccc21 | 628 s
31 | CC1=CC2=C(C=O)C(=O)[C@](C)(O)[C@@H](O)C2=CO1 | 636 s
32 | O=C(C1CC1)N1CCCCC1c1nc(-c2cnccn2)no1 (stereo not drawn) | 638 s
33 | O=C(Nc1ccc2c(c1)OCO2)N(Cc1ccsc1)CC(F)(F)F | 858 s
34 | CC(C)n1c(=O)sc2cc(S(=O)(=O)N3CCC(C(=O)N4CCc5ccccc5C4)CC3)ccc21 | 1000 s
35 | CC(C)NC(=O)c1ccc(OCC2CCCN(C(=O)c3ccccc3Cl)C2)cc1 (stereo not drawn) | 876 s
36 | CCN1CCCCc2cc(C(=O)NCC(N)=O)sc21 | 679 s
37 | O=C(Nc1cccc(Cl)c1)N1CCN(CCn2c(-c3ccncc3)nc3cccnc32)CC1 | 623 s
38 | O=C(Nc1nnc(C2CC(=O)N(c3ccccc3)C2)o1)c1ccccn1 (stereo not drawn) | 620 s
39 | COc1ccccc1CCC(=O)N1CCn2c(C)nnc2C1 | 607 s
40 | Cn1c(=O)sc2cc(S(=O)(=O)N3CCC(C(=O)Nc4ccccn4)CC3)ccc21 | 684 s
41 | CC(C)C(=O)N1CCCCCCN(C)C(=O)[C@@H]2CCC[C@@H]21 | 760 s
42 | Cc1nc(-c2ccccc2)nc2c1CCC(=O)N2C(C)C | 1060 s

More lines, now with the values ahead:

Row | RP-LC retention time | SMILES
43 | 694 s | CCOc1ccc(C2CNC(=O)C2C(=O)OC)cc1OCC (stereo not drawn)
44 | 807 s | CCC(C)Nc1cc(C)nc2c(C)c(-c3ccc(Cl)cc3)nn12 (stereo not drawn)
45 | 840 s | Cc1cc(C)cc(NC(=O)Cn2nc(N3CCOCC3)c3ccccc3c2=O)c1
46 | 546 s | CCN(CC)c1ccc(C2C(C#N)=C(N)Oc3n[nH]c(C)c32)cc1 (stereo not drawn)
47 | 806 s | COCCCNC(=O)C1(C)Cn2nc(-c3ccccc3)cc2C(=O)N1c1ccc(F)cc1 (stereo not drawn)
48 | 1030 s | CCOC(=O)c1noc2ncnc(Nc3cc(C)ccc3C)c12
49 | 859 s | Cc1ccc(C)c(N2CCN(c3ccnc(SCC(=O)NCc4ccc5c(c4)OCO5)n3)CC2)c1
50 | 823 s | CCOC(=O)c1cnn(-c2ccc(C(=O)NC(C)C)cc2)c1N
51 | 766 s | CCCNC(=O)Cn1nc2cc(-c3ccccc3)nc(C)n2c1=O
52 | 635 s | COc1ccc(NC(=O)c2[nH]c3cc(C)sc3c2CN2CCOCC2)cc1OC
53 | 1340 s | Cc1ccc(C)c(-c2csc(Nc3ccc(Cl)cc3)n2)c1
54 | 944 s | CCN(C(=O)Cn1nc(C(=O)N2CCCCC2)c2ccccc21)c1ccccc1
55 | 1050 s | COc1ccc(-c2csc(C)n2)cc1S(=O)(=O)N(C)c1cccc(C)c1
56 | 585 s | CC(C)(C)c1ccc(OCC(O)CN)cc1 (stereo not drawn)
57 | 948 s | COc1ccc(N2CC(c3noc(-c4ccc(F)c(F)c4)n3)CC2=O)cc1 (stereo not drawn)
58 | 1080 s | Cc1ccc(CNC(=O)c2nc(-c3oc4c(C)cccc4c3C)no2)o1
59 | 894 s | Cc1nc(CC(=O)Nc2nc(-c3ccc(F)cc3)c(C)s2)cs1
60 | 1050 s | COc1ccc(N2CC(c3noc(-c4cccc(OC(F)(F)F)c4)n3)CC2=O)cc1 (stereo not drawn)
61 | 912 s | CN(C)c1ccc(CNc2ccc(-c3nc(-c4cccc(F)c4)no3)cn2)cc1
62 | 925 s | Cc1cccc(Cn2c(=O)n(C)c(=O)c3snc(-c4ccccn4)c32)c1
63 | 697 s | CNC(=O)c1ccc(-n2c(C)ccc2C)nc1
64 | 946 s | CCc1cccc(C)c1NC(=O)COc1cc(C)nc(N2CCN(c3ccccc3)CC2)n1
65 | 792 s | CCCNC(=O)CCc1nc2ccccc2n(CC(=O)Nc2ccc(C(=O)OCC)cc2)c1=O
66 | 892 s | COCCc1noc(-c2nc(-c3ccc(OC)c(OC)c3)no2)n1
67 | 837 s | CCN1c2cc(Cl)ccc2C(=O)NC12CCN(C(=O)Nc1ccccc1C)CC2
68 | 866 s | COc1ccc(Cn2nccc2NC(=O)c2cc(=O)c3cc(Cl)ccc3o2)cc1
